Earlier results as cited in patent EP2033945A1, “Quaternary ammonium salts” (Infineum International Limited, priority 2007, dated 2009).

Conditions: first dissociation constant where the acid is polybasic; from CRC Handbook of Chemistry and Physics, 68th edition, page D161

| SMILES | pKa |
| --- | --- |
| O=C(O)c1c(O)cc(O)cc1O [2,4,6-trihydroxybenzoic acid] | 1.7 |
| O=C(O)c1ccccc1C(=O)O [phthalic acid] | 2.9 |
